Read-outs that look alike come from different tables or passages of the source.

Series [1] in a line: Microsomal Stability Assay, rat liver microsomes. As to conditions: for half-life at 1 μM: rat, liver microsomes, pH 7.4, 1 μM compound, 1.0 mg/mL microsome, NADPH, read-out: RLM t1/2. In kind it is in vitro ADME. On the procedure: Compounds were also tested for metabolic stability in both rat liver microsomes (RLM) and human liver microsomes (HLM) and their half-life calculated (See Table 5). The assay was performed as follows. The total volume for each incubation was 250 μL. A 100 μM DMSO solution of compound (diluted from 10 mM stock solution) was spiked into 50 mM KH2PO4 (pH 7.4) buffer containing liver microsome at a concentration of 1.0 mg/mL. The reaction was initiated by the addition of 50 μL of 1 mM NADPH. The final concentration of each compound was 1 μM (1% DMSO). The positive controls, phenacetin for CYP1A2, diclofenac for CYP2C9, omeprazole for CYP2C19, dextromethorphan for CYP2D6 and midazolam for CYP3A4 were added to a separate tube with the final substrate concentrations of 1 μM (1% DMSO) for evaluating the enzyme activities in the liver microsomes. At 0, 15, 30 and 60 min, an aliquot of 15 μL reaction mixtures were removed and 200 μL of methanol (with internal standard of 25 ng/mL propranolol) was added to quench the reaction. The resulting mixture was centrifuged and supernatant was used for LC-MS/MS analysis.
The signals for each compound, or the metabolites for the probe substrates and the internal standard were integrated and the peak area ratios to internal standard were generated. Percent parent remaining at a specified timepoint was calculated based on the peak area ratios at time 0 (as 100%) for in vitro metabolic stability studies in liver microsome and hepatocyte. The observed rate constant (kobs) for the metabolism of substrates was calculated by plotting the natural log of percentage substrate remaining versus time of incubation with the slope being kobs. The half-life (T1/2) was calculated according to the following equation: T1/2=0.693/kobs
Background: Liver microsomes are vesicles of endoplasmic reticulum, rich in cytochrome P450 enzymes.

The subject of a further series is TOV-21G (ovarian). Put plainly: Cancer Cell Proliferation Assay (acid phosphatase, 72 hrs). In kind it is cell-based. The conditions noted are these: Homo sapiens, TOV21G, read-out: IC50 on cancer cell line proliferation, TOV-21G. On the procedure:
(§1) Measurement of the inhibitive effect of compounds on cancer cell proliferation was performed. Various cell lines were tested, including HCT-116 (colon); A549 (lung); TOV-21G (ovarian); Calu-6 (lung); H1703 (Lung); LS-174T (colon); and SKOV3 (ovarian). The assays were performed under the following conditions: Cells are harvested at a concentration of 4×10^4 cells/ml in media. Volumes of 100 μl/well of these cell suspensions were added to a 96 well plate using a multichannel pipette. Plates were gently agitated to ensure an even dispersion of cells over a given plate. Cells were then incubated at 37° C., 5% CO^2 overnight. Following this, 100 μl of compound at varying concentrations was added to wells in triplicate. Control wells are those with 100 μl media containing 0.33% DMSO added to cell suspension (this is the equivalent volume of DMSO found in the highest concentration of drug). Plates were then gently agitated, as above, and incubated at 37° C., 5% CO2 for 72 hrs (control wells have reached 80-90% confluency). Assessment of cell proliferation in the presence of the compound was determined by the acid phosphatase assay.
(§2) Following the incubation period of 72 hrs, media was removed from the plates. Each well on the plate was washed twice with 100 μl PBS. This was then removed and 100 μl of freshly prepared phosphatase substrate (10 mM p-nitrophenol phosphate in 0.1M sodium acetate, 0.1% triton X-100, pH 5.5) was added to each well. The plates were then incubated in the dark at 37° C. for 2 hours. Colour development was monitored during this time. The enzymatic reaction was stopped by the addition of 50 μl of 1N NaOH. The plate was read in a dual beam plate reader at 405 nm with a reference wavelength of 620 nm. The absorbance reading of the latter is subtracted from the former, and the effect of the drug on cell proliferation was then measured as a percentage against the control cells (DMSO), which is taken as 0% inhibition. […] FIG. 14 A-K also show the % inhibition curves of various compounds on these cancer cell lines with the 72 hrs proliferation assay.

In another series the test system is LS-174T (colon). The series is described as above. In kind it is cell-based. As to conditions: Homo sapiens, LS174T, read-out: IC50 on cancer cell line proliferation, LS-174T. As to the method:
as §1, §2

A further series has as its system SKOV3 (ovarian). The series is described as above. It counts as cell-based. As to conditions: Homo sapiens, SK-OV-3, read-out: IC50 on cancer cell line proliferation, SKOV3. On the procedure:
as §1, §2

The subject of the next series is H1703 (Lung). Described as above. It counts as cell-based. As to conditions: Homo sapiens, NCI-H1703, read-out: IC50 on cancer cell line proliferation, H1703. On the procedure:
as §1, §2

In the next series the test system is A549 (lung). The series is described as above. In kind it is cell-based. The conditions noted are these: Homo sapiens. On the procedure:
as §1, §2

A further series relates to HCT-116 (colon). The description is as above. The conditions noted are these: Homo sapiens, read-out: IC50 on cancer cell line proliferation, HCT-116. It counts as cell-based. As to the method: as §1, §2
Another series relates to Calu-6 (lung). The description is as above. It counts as cell-based. As to conditions: Homo sapiens, read-out: IC50 on cancer cell line proliferation, Calu6. As to the method:
as §1, §2

Setting [2] is: read-out: IC50 on cancer cell line proliferation, A549.

For the molecule `O=C(Nc1nc(NC(=O)c2cc3ccccc3s2)n(-c2ccccc2)n1)c1ccccc1` [Compound A2], in series [1], the half-life at 1 μM was 36 min.
Same read-out and setting: the figure for `O=C(Nc1nc(NC(=O)c2ccccc2)n(-c2ccccc2)n1)c1ccccc1` [Compound A, N,N′-(1-phenyl-1H-1,2,4-triazole-3,5-diyl)dibenzamide] is 20.6 min; for `O=C(Nc1nc(NC(=O)c2ccc3ccccc3n2)n(-c2ccccc2)n1)c1ccccc1` [Compound B2] it is 2 min.
Turning to `Cc1ccccc1C(=O)Nc1nc(NC(=O)/C=C/c2ccccc2)n(-c2ccccc2)n1` [Compound C2], the half-life at 1 μM in series [1] turned out to be 12 min.
With `O=C(/C=C/c1ccccc1)Nc1nc(NC(=O)c2ccccc2)nn1-c1ccccc1` [Compound C, N-(5-cinnamamido-1-phenyl-1H-1,2,4-triazol-3-yl)benzamide], the IC50 in the series with TOV-21G (ovarian) is 1.74 µM; in the series on LS-174T (colon), 2.2 µM; in the series on SKOV3 (ovarian) it was 3.16 µM; in the series on H1703 (Lung), 2.59 µM; in the series on A549 (lung) (setting [2]), 2.26 µM; with HCT-116 (colon), 1.67 µM. In addition, the “In vitro RLM” value in series [1] (as repeated in the PK tables) is on record as 14.1 min. Also, the half-life at 1 μM in series [1] turned out to be 14.1 min.
Turning to `O=C(Nc1nc(NC(=O)c2ccccc2)n(-c2ccc3c(c2)OCCO3)n1)c1ccccc1` [Compound E2], the half-life at 1 μM in series [1] was determined as 3 min.
As to `Cc1ccccc1C(=O)Nc1nc(NC(=O)c2ccccc2C)n(-c2ccccc2)n1` [Compound F, 2-methyl-N-[5-[(2-methylbenzoyl)amino]-1-phenyl-1,2,4-triazol-3-yl]benzamide], the IC50 was 2.22 µM in the series with TOV-21G (ovarian); 2.67 µM in the series with LS-174T (colon); 3.3 µM in the series with SKOV3 (ovarian); 2.65 µM in the series on A549 (lung) (setting [2]); 2.28 µM with HCT-116 (colon). Moreover, the “In vitro RLM (min)” value in series [1] (as repeated in the PK tables) is “Stable”. Besides, the half-life at 1 μM in series [1] was found to be 630 min.
For the molecule `O=C(Nc1nc(NC(=O)c2cccs2)nn1-c1ccccc1)c1ccccc1` [Compound G2], the half-life at 1 μM in series [1] came to 39 min.
On to `Cc1ccccc1C(=O)Nc1nc(-c2ccccn2)nn1-c1ccc(OC(F)(F)F)cc1` [Compound H3], for which the IC50 turned out to be 0.751 µM in the series on TOV-21G (ovarian); 0.497 µM with LS-174T (colon); 2.41 µM with Calu-6 (lung); 0.737 µM in the series with SKOV3 (ovarian); 3.04 µM in the series with H1703 (Lung); 0.823 µM in the series on A549 (lung) (setting [2]). For the same molecule, the IC50 in the series on HCT-116 (colon) was determined as 0.485 µM. Also, in series [1], the half-life at 1 μM was 16 min.
With `O=C(Nc1nc(NC(=O)c2ccccc2)n(-c2ccc3ncccc3c2)n1)c1ccccc1` [Compound J2], the half-life at 1 μM in series [1] came out at 50 min.
Regarding `Cc1ccccc1C(=O)Nc1nc(NC(=O)c2cccs2)nn1-c1ccccc1` [Compound K2], the half-life at 1 μM in series [1] was found to be 29 min.
As to `Cc1ccccc1C(=O)Nc1nc(NC(=O)c2ccccc2)nn1-c1ccccc1` [Compound K, N-(5-benzamido-2-phenyl-1,2,4-triazol-3-yl)-2-methyl-benzamide], the IC50 with TOV-21G (ovarian) was 1.35 µM; in the series on LS-174T (colon), 3.11 µM; in the series on SKOV3 (ovarian) it was 3.14 µM; with H1703 (Lung), 3.46 µM; in the series on A549 (lung) (setting [2]) it was 2.53 µM; in the series on HCT-116 (colon), 1.92 µM.
On to `O=C(Nc1nc(Nc2ncnc3ccccc23)n(-c2ccccc2)n1)c1ccccc1` [Compound L, N-[1-phenyl-5-(quinazolin-4-ylamino)-1,2,4-triazol-3-yl]benzamide], for which the IC50 in the series on TOV-21G (ovarian) was found to be 0.989 µM; with LS-174T (colon), 1.52 µM; with Calu-6 (lung) it was 2.27 µM; in the series with SKOV3 (ovarian), 1.23 µM; with A549 (lung) (A549, 72 h, heading: IC50 on cancer cell line proliferation), 1.55 µM; in the series with HCT-116 (colon), 0.939 µM. Moreover, the half-life at 1 μM in series [1] is 59.2 min.
With `Cc1ccccc1C(=O)Nc1nc(-c2ccccn2)nn1-c1ccccc1` [Compound Q2], the IC50 is 1.6 µM with TOV-21G (ovarian); 2.29 µM with LS-174T (colon); 2.08 µM in the series with SKOV3 (ovarian); around 2.53 µM with H1703 (Lung); 2.16 µM with A549 (lung) (setting [2]); 1.64 µM in the series on HCT-116 (colon). In addition, in series [1], the half-life at 1 μM came out at 76 min.
Regarding `Cc1ccccc1C(=O)Nc1nc(NC(=O)c2ccccc2C)n(-c2ccc(Cl)cc2)n1` [Compound Q3], the IC50 in the series with TOV-21G (ovarian) was 0.688 µM; with LS-174T (colon), 1.73 µM; in the series on Calu-6 (lung), 0.194 µM; in the series on SKOV3 (ovarian), 2.06 µM; with H1703 (Lung) it was 1.54 µM; in the series on A549 (lung) (setting [2]) it was 0.613 µM. Moreover, in the series with HCT-116 (colon), the IC50 was determined as 0.294 µM. The half-life at 1 μM in series [1] was found to be 133 min.
For the molecule `Cc1ccccc1C(=O)Nc1nc(Nc2ncnc3ccccc23)n(-c2ccccc2)n1` [Compound R2], the half-life at 1 μM in series [1] turned out to be 77 min.
`Cc1ccc(-c2nc(NC(=O)c3ccccc3C)n(-c3ccccc3)n2)nc1` [Compound R3, 2-methyl-N-(3-(5-methylpyridin-2-yl)-1-phenyl-1H-1,2,4-triazol-5-yl)benzamide]: the IC50 with TOV-21G (ovarian) came out at 1.19 µM; in the series with LS-174T (colon), 1.69 µM; in the series with Calu-6 (lung) it was 3.37 µM; in the series on SKOV3 (ovarian), 2.71 µM; in the series on H1703 (Lung) it was 2.62 µM; in the series on A549 (lung) (setting [2]), 1.98 µM. The IC50 with HCT-116 (colon) came to 1.3 µM.
Turning to `Cc1ccccc1C(=O)Nc1nc(-c2ncccc2C)nn1-c1ccccc1` [Compound S3, 2-methyl-N-(3-(3-methylpyridin-2-yl)-1-phenyl-1H-1,2,4-triazol-5-yl)benzamide], the IC50 was 0.566 µM with TOV-21G (ovarian); 0.522 µM in the series on LS-174T (colon); 2.36 µM with Calu-6 (lung); 0.65 µM in the series on SKOV3 (ovarian); 2.71 µM in the series with H1703 (Lung); 0.878 µM in the series with A549 (lung) (setting [2]). Further, in the series on HCT-116 (colon), the IC50 was determined as 0.482 µM.
Consider `O=C(/C=C/c1ccccc1)Nc1nc(NC(=O)c2ccccc2)nn1-c1ccccn1` [Compound U1], for which, in series [1], the half-life at 1 μM stood at 10.5 min.
With `c1ccc(-n2nc(-c3ccccn3)nc2Nc2ncnc3ccccc23)cc1` [Compound U2], the half-life at 1 μM in series [1] amounted to 126 min.
Same read-out and setting: the figure for `O=C(Nc1nc(NC(=O)c2ccco2)n(-c2ccccc2)n1)c1ccccc1` [Compound W1] is 110 min.
In the case of `O=C(Nc1nc(-c2ccccn2)nn1-c1ccccc1)c1ccccc1` [Compound Y1, N-(1-phenyl-3-(pyridin-2-yl)-1H-1,2,4-triazol-5-yl)benzamide], the IC50 in the series with TOV-21G (ovarian) is 0.495 µM; in the series with LS-174T (colon), 0.938 µM; in the series on Calu-6 (lung) it was 3.34 µM; in the series on SKOV3 (ovarian) it was 1.18 µM; in the series with H1703 (Lung), 4.7 µM; in the series on A549 (lung) (setting [2]), 0.893 µM. The IC50 in the series on HCT-116 (colon) was 0.351 µM. In series [1], the half-life at 1 μM is below 1 min.
`O=C(Nc1nc(NC(=O)c2ccccc2)n(-c2ccc(OC(F)(F)F)cc2)n1)c1ccccc1` [Compound Z1]: the IC50 was found to be 0.21 µM in the series with TOV-21G (ovarian); 0.391 µM with LS-174T (colon); 1.06 µM with Calu-6 (lung); 0.606 µM in the series with SKOV3 (ovarian); 0.481 µM with H1703 (Lung); 0.253 µM in the series on A549 (lung) (setting [2]). The IC50 in the series on HCT-116 (colon) is 0.132 µM. The half-life at 1 μM in series [1] is 19 min.
As to `O=C(Nc1nc(Nc2ncnc3ccccc23)n(-c2ccccc2)n1)c1ccco1` [Z], the half-life at 1 μM in series [1] worked out at 45 min.

For the origin of these results see US10308617B2, “Triazole benzamide derivatives and the compositions and methods of treatment regarding the same” (An2H Discovery Limited, priority 2016, dated 2019).
